# Several values for one entry are separate records, joined by “and”; a condition that tells them apart may be missing. Equal entries are not always repeated. Entries after “also recorded” stand apart in the source; their conditions may differ. Where two headings read alike, the source gives them in different places. Non-standard residues stand in square brackets, D forms with d. Residues, ends and D or L forms follow the SMILES beside them. *: point of attachment. Sta = CC(C)C[C@H](N)[C@@H](O)CC(=O)O; Isovaleryl = CC(C)CC(=O)*
# Columns and labels:
# [1] = test system: kinesin-like protein KIFC1 (HSET/KIFC1); parameters: method as in MedChemExpress; settings: ref MedChemExpress; cited from earlier work
# [2] = biological target: T1, Rlig1-AMP (Homo sapiens, UniProt Q8N999); assay: FRET-based high-throughput screening of inhibitors for Rlig1-AMP; format: biochemical; settings: for Raw data [w Enyzm]: with enzyme; for Raw data [w/o Enzym]: without enzyme
# T1 construct: made in house; host or cells: E. coli BL21 (DE3), pET15b-Rlig1
# T1 sequence (Q8N999 whole entry): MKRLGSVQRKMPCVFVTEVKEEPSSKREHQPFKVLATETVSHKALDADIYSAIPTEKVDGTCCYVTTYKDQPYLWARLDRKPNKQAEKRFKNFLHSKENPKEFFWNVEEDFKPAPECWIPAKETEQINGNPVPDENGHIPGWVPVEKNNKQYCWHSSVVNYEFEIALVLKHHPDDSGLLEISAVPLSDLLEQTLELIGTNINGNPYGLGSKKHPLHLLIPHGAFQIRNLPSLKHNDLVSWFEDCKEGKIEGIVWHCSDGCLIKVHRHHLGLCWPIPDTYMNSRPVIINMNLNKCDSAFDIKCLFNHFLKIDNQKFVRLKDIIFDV
# [3] = test system: SHSY5Y neuroblastoma cells; parameters: method as in MedChemExpress; settings: ref MedChemExpress, cited from earlier work
# [4] = DMSO; ref MedChemExpress; cited from earlier work
# [5] = test system: HEK293 cells; assay: RNA integrity analysis of HEK293 cells treated with inhibitors and menadione (TapeStation 28S/18S rRNA); format: cell-based, human; settings: 30 μM compound 24 h; Menadione 0 μM
# [6] = test system: HEK293 cells; assay: Cell viability assay of HEK293 cells treated with inhibitors (CellTiter-Glo)
# [7] = biological target: T1, Rlig1-AMP; assay: Radioactive RNA ligation assay (hit validation, 10 µM test and IC50 determination); format: biochemical; settings: for IC50: n = 3; for percentage inhibition (dose response curve for IC50): replicates I-III
# [8] = test system: DNA methyltransferases (DNMTs); settings: cited from earlier work
# [9] = Cell viability assay of HEK293 cells treated with inhibitors and menadione; format: cell-based, human; settings: human, HEK293 cells, 30 μM compound, 24 h, no menadione; read-out: cell viability without oxidative stress
# [10] = test system: HEK293 cells; assay: as above; format: cell-based, human; settings: inhibitor 24 h, then 40 μM menadione 5 h
# [11] = in vitro; settings: human
# [12] = test system: HEK293 cells; assay: Light-microscopy of inhibitor- and menadione-treated HEK293 cells; format: cell-based, human; settings: 30 µM compound 24 h, then menadione 5 h
# [13] = biological target: T2, human DNA ligase 1 (hLig1) (Homo sapiens, UniProt P18858); assay: DNA ligation assay with various hLig1 concentration at constant inhibitor concentration; format: biochemical; settings: 10 µM compound, 30 min 37 °C, three replicates
# T2 construct: made in house; host or cells: E. coli Rosetta BL21 (DE3), pET28a-hLig1
# T2 sequence (P18858 whole entry): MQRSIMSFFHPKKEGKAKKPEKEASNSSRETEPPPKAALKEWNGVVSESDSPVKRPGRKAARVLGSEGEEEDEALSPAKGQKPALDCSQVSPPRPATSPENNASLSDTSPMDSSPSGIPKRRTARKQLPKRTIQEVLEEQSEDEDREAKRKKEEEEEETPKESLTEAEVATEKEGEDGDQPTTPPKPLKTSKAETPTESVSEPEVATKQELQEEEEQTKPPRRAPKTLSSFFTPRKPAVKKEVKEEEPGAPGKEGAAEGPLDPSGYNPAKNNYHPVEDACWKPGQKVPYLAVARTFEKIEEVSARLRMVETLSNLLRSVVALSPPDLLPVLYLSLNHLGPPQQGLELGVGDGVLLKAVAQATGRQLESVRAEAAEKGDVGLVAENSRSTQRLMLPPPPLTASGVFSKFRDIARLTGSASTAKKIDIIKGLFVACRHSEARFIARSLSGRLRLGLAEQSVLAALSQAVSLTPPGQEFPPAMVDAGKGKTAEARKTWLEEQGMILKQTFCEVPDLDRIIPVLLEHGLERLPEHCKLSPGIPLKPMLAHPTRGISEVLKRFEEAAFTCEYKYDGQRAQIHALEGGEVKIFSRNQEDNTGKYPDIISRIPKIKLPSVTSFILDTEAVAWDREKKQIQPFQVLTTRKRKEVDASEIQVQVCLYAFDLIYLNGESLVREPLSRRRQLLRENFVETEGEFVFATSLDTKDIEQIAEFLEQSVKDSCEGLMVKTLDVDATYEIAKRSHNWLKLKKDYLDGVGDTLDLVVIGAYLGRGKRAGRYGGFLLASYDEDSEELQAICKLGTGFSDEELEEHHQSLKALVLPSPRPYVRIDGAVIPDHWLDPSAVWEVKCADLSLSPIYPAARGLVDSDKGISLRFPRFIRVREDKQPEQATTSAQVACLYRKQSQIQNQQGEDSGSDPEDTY
# [14] = test system: FLT3 D835Y; parameters: method as in MedChemExpress [1][2][3]; settings: ref MedChemExpress [1][2][3]; cited from earlier work
# [15] = test system: FLT3 WT; parameters: method as in MedChemExpress [1][2][3]; settings: ref MedChemExpress [1][2][3]; cited from earlier work
# [16] = in DMSO; ref MedChemExpress; cited from earlier work
# [17] = test system: FLT3 internal tandem duplication (ITD); parameters: method as in MedChemExpress [1][2][3]; settings: ref MedChemExpress [1][2][3]; cited from earlier work
# [18] = test system: PI5P4Kα; parameters: method as in MedChemExpress [1]; settings: ref MedChemExpress [1], cited from earlier work
# [19] = biological target: protein kinase C (PKC); parameters: method as in MedChemExpress; settings: PKC activity; ref MedChemExpress; cited from earlier work
# [20] = ref MedChemExpress, cited from earlier work
# [21] = DMSO; ultrasonic/warming; ref MedChemExpress; cited from earlier work
# [22] = test system: acid protease; parameters: method as in MedChemExpress; settings: ref MedChemExpress, cited from earlier work
# [23] = test system: pepsin; parameters: method as in MedChemExpress; settings: ref MedChemExpress, cited from earlier work
# [24] = biological target: proctase; parameters: method as in MedChemExpress; settings: ref MedChemExpress, cited from earlier work
# [25] = test system: PKC; parameters: method as in MedChemExpress; settings: ref MedChemExpress, cited from earlier work
# [26] = HTS hits, difference of raw data w/o and w enzyme
# [27] = HTS hits, normalized value (npi)
# [28] = radioactive ligation assay, 500 nM Rlig1-AMP, 20 min 37 °C, read-out: IC50
# [29] = log(inhibitor) vs. response, variable slope (four parameters)
# [30] = sheet HTS hits, difference of raw data w/o and w enzyme
# [31] = sheet HTS hits, MedChemExpress library
# [32] = HTS hits, difference of raw data without and with enzyme
compound,measurement,setting,value
CCCc1cc(C(=O)N[C@H](Cc2ccc(-c3cccc(OC(F)(F)F)c3)nc2)C(=O)N[C@@H]2CCNC2)sc1C [AZ82],IC50,[1],300 nM
same,Ki,[1],43 nM
same,1-D Distance,[2]; [26],670
same,1-D Distance.npi,[2]; [27],96.1946
same,Raw data [w Enyzm],[2]; HTS hits,8773
same,Raw data [w/o Enzym],[2]; HTS hits,9443
COc1nc(-c2cc(C)c(N[C@@H](C)c3ccc(F)cc3)nn2)ccc1-n1cnc(C)c1 [BPN-15606],IC50,"[3]; read-out: IC50, production of Aβ40",17 nM
same,IC50,"[3]; read-out: IC50, production of Aβ42",7 nM
same,1-D Distance,[2]; [26],1474
same,1-D Distance.npi,[2]; [27],75.4488
same,Raw data [w Enyzm],[2]; HTS hits,8858
same,Raw data [w/o Enzym],[2]; HTS hits,10332
same,solubility,[4],100 mg/mL and 238.97 mM
"Cc1cc(Nc2ccc(NC(=O)c3ccc(Nc4ccnc5ccccc45)cc3)cc2)nc(N)n1 [Compound 1, SGI-1027, reference compound]",28S/18S ratio,[5],> 2
same,inhibition at 10 µM,"[2]; 10 μM compound, read-out: inhibition in HTS",> 70%
same,1-D Distance,[2]; [26],390
same,Raw data [w Enyzm],[2]; HTS hits,8456
same,Raw data [w/o Enzym],[2]; HTS hits,8066
same,cytotoxicity (in words),"[6]; HEK293, 24 h, up to 30 μM",moderate cytotoxicity
same,IC50 (Figure 3D: EC50 values for plot; log(inhibitor) vs. response -- Variable slope (four parameters)),"[6]; HEK293 cell viability, fit per plate (3 plates, 4 technical replicates each), highest tested concentration 30 µM",26.0265 µM and 22.3419 µM and 19.1567 µM
same,LogIC50 (log(inhibitor) vs. response -- Variable slope (four parameters)),"[6]; HEK293 cell viability, fit per plate (3 plates, 4 technical replicates each), log of [µM]",1.415 and 1.349 and 1.282
same,EC50,"[6]; Homo sapiens, HEK293, 24 h",23200 nM
same,inhibition at 10 µM,"[7]; 10 µM compound, 37 °C, 20 min",> 70%
same,formation of the RNA-adenylate intermediate,[7]; dose-response urea-PAGE (Fig. S3),inhibited the formation of the RNA-adenylate intermediate
same,IC50,[7]; [28],3960 nM
same,solubility,[4],27 mg/mL and 58.50 mM
same,IC50,"[8]; DNMT1, poly(dI-dC) as substrate, ref MedChemExpress, read-out: IC50",12500 nM
same,IC50,"[8]; DNMT3A, poly(dI-dC) as substrate, ref MedChemExpress, read-out: IC50",8000 nM
same,IC50,"[8]; DNMT3B, poly(dI-dC) as substrate, ref MedChemExpress, read-out: IC50",7500 nM
same,IC50,[8]; read-out: IC50 DNMTs,6000 to 13000 nM
same,"viability at 24 h, 30 µM",[9],50%
same,cell viability under oxidative stress (in words),[10],almost complete loss of viability
same,"viability at 24 h, 0.234375 µM",[11],113%
same,"viability at 24 h, 0.46875 µM",[11],103%
same,"viability at 24 h, 0.9375 µM",[11],104%
same,"viability at 24 h, 1.875 µM",[11],101%
same,"viability at 24 h, 3.75 µM",[11],91.9%
same,"viability at 24 h, 7.5 µM",[11],83.6%
same,"viability at 24 h, 15 µM",[11],60.5%
same,"viability at 24 h, 30 µM",[11],51%
same,cell morphology,[12],poor adherence and cell shrinkage
Nc1nccc(Nc2ccc(NC(=O)c3ccc(Nc4ccnc5ccccc45)cc3)cc2)n1 [Compound 26],DNA product formation,[13]; hlig1 0.0315 µM,43.039% and 22.9913% and 34.3002%
same,DNA product formation,[13]; hlig1 0.0625 µM,60.9211% and 39.0213% and 52.249%
same,DNA product formation,[13]; hlig1 0.5 µM,79.5392% and 84.6219% and 85.9221%
same,inhibition of Rlig1-AMP ligation (urea-PAGE),"[7]; 10 μM compound, 500 nM Rlig1-AMP, 20 min 37 °C",Ligation was inhibited; also recorded: fully inhibited
same,HillSlope (best-fit value),[7]; four-parameter fit,3.34
same,Span (best-fit value),[7]; four-parameter fit,95.37
same,IC50,"[7]; four-parameter fit, read-out: IC50 (best-fit value)",4490 nM
same,percentage inhibition (dose response curve for IC50),[7]; log Compound [µM] 0.273001,7.036 and 5.771 and 6.366
same,percentage inhibition (dose response curve for IC50),[7]; log Compound [µM] 0.574031,19.5464 and 52.3001 and 38.2038
same,percentage inhibition (dose response curve for IC50),[7]; log Compound [µM] 0.875061,94.6767 and 96.3427 and 56.3237
same,percentage inhibition (dose response curve for IC50),[7]; log Compound [µM] 1.17609,97.6992 and 100 and 95.9858
same,percentage inhibition (dose response curve for IC50),[7]; log Compound [µM] 1.47712,89.2369 and 100 (2×)
same,percentage inhibition (dose response curve for IC50),[7]; log Compound [µM] -0.0280287,3.692 and 2.642 and 2.052
same,percentage inhibition (dose response curve for IC50),[7]; log Compound [µM] -0.329059,0 and 3.294 and 5.142
same,percentage inhibition (dose response curve for IC50),[7]; log Compound [µM] -0.630089,0 and 3.877 and 4.72
same,LogIC50 (best-fit value),"[7]; log of µM, four-parameter fit",0.6524
same,Bottom (best-fit value),[7]; [29],2.425
same,Top (best-fit value),[7]; [29],97.8
same,IC50,[7]; [28],4490 nM
same,cell morphology,[12],poor adherence and cell shrinkage
Cc1ccc2c(-c3nc(Nc4cc(CN5C[C@@H](C)N[C@@H](C)C5)cc(C5CC5)c4)ncc3Cl)c[nH]c2c1 [HM43239],IC50,[14],[…]
same,1-D Distance,[2]; [30],834
same,Raw data [w Enyzm],[2]; sheet HTS hits,6467
same,Raw data [w/o Enzym],[2]; sheet HTS hits,5633
same,"solubility, DMSO",[16],DMSO : 125 mg/mL (249.47 mM; Need ultrasonic)
same,IC50,[17],1.8 nM
COc1cc(/C=C(\C#N)C(=O)c2ccc(O)c(O)c2)cc(I)c1O [I-OMe-Tyrphostin AG 538],1-D Distance.npi,[2]; [31],98.3407
same,1-D Distance,[2]; [30],515
same,Raw data [w Enyzm],[2]; sheet HTS hits,1659
same,Raw data [w/o Enzym],[2]; sheet HTS hits,2174
same,IC50,[18]; ATP-competitive,1000 nM
Cl.Cl.O=C1c2c(O)ccc(O)c2C(=O)c2c(NCCNCCO)ccc(NCCNCCO)c21 [Mitoxantrone (dihydrochloride)],IC50,[19],8500 nM
same,1-D Distance.npi,"[2]; HTS hits, MedChemExpress library",101.642
same,1-D Distance,[2]; [32],208
same,Raw data [w Enyzm],[2]; HTS hits,3238
same,Raw data [w/o Enzym],[2]; HTS hits,3030
O=C1c2c(O)ccc(O)c2C(=O)c2c(NCCNCCO)ccc(NCCNCCO)c21 [Mitoxantrone],IC50,[19],8500 nM
same,solubility,[20]; DMSO,62.5 mg/mL and 140.61 mM
same,solubility,[20]; H2O,100 mg/mL and 224.98 mM
same,1-D Distance,[2]; [32],308
same,Raw data [w Enyzm],[2]; HTS hits,3553
same,Raw data [w/o Enzym],[2]; HTS hits,3245
CC(C)CC(=O)N[C@H](C(=O)N[C@H](C(=O)N[C@@H](CC(C)C)[C@@H](O)CC(=O)N[C@@H](C)C(=O)N[C@@H](CC(C)C)[C@@H](O)CC(=O)O)C(C)C)C(C)C [Pepstatin] (Isovaleryl-VV[Sta]A[Sta]-OH),"solubility, DMSO",[21],125 mg/mL and 182.24 mM
same,IC50,"[22]; substrate casein, read-out: IC50, casein-acid protease",520 nM
same,IC50,"[22]; substrate hemoglobin, read-out: IC50, hemoglobin-acid protease",260 nM
same,IC50,"[23]; substrate casein, read-out: IC50, casein-pepsin",150 nM
same,IC50,"[23]; substrate hemoglobin, read-out: IC50, hemoglobin-pepsin",4.5 nM
same,IC50,"[24]; substrate casein, read-out: IC50, casein-proctase",290 nM
same,IC50,"[24]; substrate hemoglobin, read-out: IC50, hemoglobin-proctase",6.2 nM
same,1-D Distance,[2]; [26],1754
same,Raw data [w Enyzm],[2]; HTS hits,8928
same,Raw data [w/o Enzym],[2]; HTS hits,10682
CN(C)C/C=C/C(=O)Nc1ccc(C(=O)Nc2cccc(Nc3cc(-c4c[nH]c5ccccc45)ncn3)c2)cc1 [THZ-P1-2],1-D Distance.npi,[2]; [31],94.2865
same,1-D Distance,[2]; [30],656
same,Raw data [w Enyzm],[2]; sheet HTS hits,5306
same,Raw data [w/o Enzym],[2]; sheet HTS hits,4650
same,IC50,[18],190 nM
CCCCC(=O)OCC(=O)[C@]1(O)Cc2c(O)c3c(c(O)c2[C@@H](O[C@H]2C[C@H](NC(=O)C(F)(F)F)[C@H](O)[C@H](C)O2)C1)C(=O)c1c(OC)cccc1C3=O [Valrubicin],"solubility, DMSO",[21],125 mg/mL and 172.74 mM
same,1-D Distance,[2]; [26],1660
same,Raw data [w Enyzm],[2]; HTS hits,2541
same,Raw data [w/o Enzym],[2]; HTS hits,4201
same,IC50,"[25]; PDBu-induced, read-out: IC50, PDBu-induced PKC activation",1250 nM
same,IC50,"[25]; TPA-induced, read-out: IC50, TPA-induced PKC activation",850 nM

# Source: article PMC11747885, “Potent inhibitors of the human RNA ligase Rlig1 highlights its role in RNA integrity maintenance under oxidative cellular stress” (Chemical Science, 2025)
